SMILES strings stand for the structures. pIC50: −log10 of the molar value.

The target of data set [1] is T1, CYP1A2 (Homo sapiens, UniProt P05177).
T1 sequence (P05177 whole entry): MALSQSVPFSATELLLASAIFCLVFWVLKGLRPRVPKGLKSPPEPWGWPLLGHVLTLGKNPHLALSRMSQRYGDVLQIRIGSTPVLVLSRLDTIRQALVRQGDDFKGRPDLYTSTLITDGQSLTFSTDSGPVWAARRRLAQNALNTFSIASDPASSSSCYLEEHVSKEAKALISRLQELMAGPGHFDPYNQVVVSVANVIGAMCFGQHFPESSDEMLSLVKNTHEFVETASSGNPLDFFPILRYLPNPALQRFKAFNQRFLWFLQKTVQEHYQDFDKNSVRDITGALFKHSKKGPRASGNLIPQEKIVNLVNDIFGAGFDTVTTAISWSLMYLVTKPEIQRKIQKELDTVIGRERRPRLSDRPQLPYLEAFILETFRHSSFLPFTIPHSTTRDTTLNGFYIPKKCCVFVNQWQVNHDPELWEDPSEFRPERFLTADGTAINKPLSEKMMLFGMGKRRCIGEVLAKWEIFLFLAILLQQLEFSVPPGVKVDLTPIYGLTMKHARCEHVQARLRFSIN
Kind of data set: Percent inhibition of CYP450 1A2 at 1 uM concentration. Format: ADME.

Data set [2] addresses CYP2C9 (Homo sapiens, UniProt P11712). Kind of data set: Percent inhibition of CYP450 2C9 at 1 uM concentration. The class given is ADME.
For data set [3], the target named is CYP2D6 (Homo sapiens, UniProt P10635). Kind of data set: Percent inhibition of CYP450 2D6 at 1uM concentration. The class given is ADME.
Chain of CYP2D6 (P10635 whole entry): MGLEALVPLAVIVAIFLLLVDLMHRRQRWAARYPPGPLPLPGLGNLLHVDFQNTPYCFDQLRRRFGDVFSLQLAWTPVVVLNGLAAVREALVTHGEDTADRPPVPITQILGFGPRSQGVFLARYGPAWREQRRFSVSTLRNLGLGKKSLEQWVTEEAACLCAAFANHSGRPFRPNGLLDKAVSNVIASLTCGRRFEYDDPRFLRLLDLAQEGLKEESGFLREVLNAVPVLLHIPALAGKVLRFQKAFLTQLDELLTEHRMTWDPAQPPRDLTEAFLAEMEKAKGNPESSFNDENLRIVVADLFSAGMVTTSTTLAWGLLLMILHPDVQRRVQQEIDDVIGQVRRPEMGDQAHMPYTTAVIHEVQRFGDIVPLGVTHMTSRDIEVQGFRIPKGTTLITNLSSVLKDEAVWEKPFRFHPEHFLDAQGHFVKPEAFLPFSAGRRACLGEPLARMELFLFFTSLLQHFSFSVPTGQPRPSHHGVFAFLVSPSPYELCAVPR
Data set [4] in a line: (§1) Clearance after i.v. dosing at 1 mg kg-1. The following applies: in vivo, iv. Format: ADME, organism-based. Further details: dose 1 mg kg-1, route intravenous.
A short description of data set [5]: Microsome stability: percent compound remaining. Format: ADME. The following applies: microsomes.
Data set [6] in a line: Bioavailability after i.p. dosing at 5 mg kg-1. The class given is ADME, organism-based. The note with it: mouse, in vivo, ip.
The nature of data set [7]: Hepatocyte stability. The note with it: hepatocytes. The class given is ADME, cell-based.
A short description of data set [8]: Permeability (Papp) run from pH 6.5-7.4. The class given is ADME, cell-based. The note with it: human, Caco-2, pH 6.5. On the technique in general: Passage across Caco-2 layers is used to estimate intestinal permeability.
The nature of data set [9]: Steady state volume of distribution (Vdss) after i.v. dosing at 1 mg kg-1. Format: ADME, organism-based. Further details: dose 1 mg kg-1, route intravenous. The note with it: in vivo, iv, read-out: Vdss.
A short description of data set [10]: (§2) Oral bioavailability after oral dosing at 5 mg kg-1. Format: ADME, organism-based. The note with it: in vivo.
Data set [11] in a line: (§3) AUC after oral dosing at 5 mg kg-1. The class given is ADME, organism-based. Further details: dose 5 mg kg-1, route oral. The note with it: rat, plasma.
Data set [12] can be described thus: AUC after i.p. dosing at 5 mg kg-1. The following applies: mouse, plasma, ip. The class given is ADME, organism-based. Further details: dose 5 mg kg-1, route intraperitoneal.
Data set [13] concerns the target CYP2C19 (Homo sapiens, UniProt P33261). Kind of data set: Percent inhibition of CYP450 2C19 at 1 uM concentration. Format: ADME.
Data set [14] can be described thus: as §3. The class given is ADME, organism-based, Plasma. Further details: dose 5 mg kg-1, route oral. The note with it: mouse, plasma.
Data set [15] can be described thus: Half life after i.v. dosing at 1 mg kg-1. Format: ADME, organism-based. Further details: dose 1 mg kg-1, route intravenous. The note with it: in vivo, iv.
Data set [16] relates to Mus musculus. The description is as §1. The following applies: in vivo, iv. Further details: dose 1 mg kg-1, route intravenous. Format: ADME, organism-based.
Data set [17] relates to Mus musculus. The description is as §2. The following applies: in vivo. Format: ADME, organism-based.
For data set [18], the target named is Cytochrome P450 3A4 (Homo sapiens, UniProt P08684). Kind of data set: Inhibition of CYP450 3A4. The class given is ADME.
Chain of Cytochrome P450 3A4 (P08684 whole entry): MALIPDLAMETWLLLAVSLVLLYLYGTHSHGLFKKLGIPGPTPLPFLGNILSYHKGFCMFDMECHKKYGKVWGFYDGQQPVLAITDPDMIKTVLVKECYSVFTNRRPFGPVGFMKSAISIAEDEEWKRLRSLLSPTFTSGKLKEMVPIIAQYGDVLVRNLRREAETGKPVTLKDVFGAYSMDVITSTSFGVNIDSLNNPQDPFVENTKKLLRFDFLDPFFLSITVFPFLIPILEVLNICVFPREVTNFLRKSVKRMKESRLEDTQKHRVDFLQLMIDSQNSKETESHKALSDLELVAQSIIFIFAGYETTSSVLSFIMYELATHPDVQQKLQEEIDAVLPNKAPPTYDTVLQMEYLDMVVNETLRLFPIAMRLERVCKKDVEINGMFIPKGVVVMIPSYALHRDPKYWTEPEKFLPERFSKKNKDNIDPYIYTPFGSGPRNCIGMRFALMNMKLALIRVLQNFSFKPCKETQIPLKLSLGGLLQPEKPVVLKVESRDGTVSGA
For data set [19], the system named is Mus musculus. The description is as §3. The class given is ADME, organism-based, Plasma. Further details: dose 5 mg kg-1, route oral. The note with it: in vivo.
The test system of data set [20] is MCF7. Kind of data set: Inhibition of MCF7 cell proliferation (mean of two experiments). Format: functional, cell-based. The note with it: Homo sapiens.
Data set [21] relates to HCT-116. Kind of data set: cells. The note with it: Homo sapiens. The class given is functional, cell-based.
Description: Inhibition of HCT116 cell proliferation (mean of two experiments)
Data set [22] has as its target Histone deacetylase 1 (Homo sapiens, UniProt Q13547). Kind of data set: Inhibition of HDAC activity measured by HDAC Fluorescent Activity Assay (mean of two experiments). The class given is functional.
In data set [23] the test system is MDA-MB-231. Kind of data set: cells. The class given is functional, cell-based. The following applies: Homo sapiens.
Description: Inhibition of MDA-MB-231 cell proliferation (mean of two experiments)

Chain of CYP2C9 (P11712 whole entry): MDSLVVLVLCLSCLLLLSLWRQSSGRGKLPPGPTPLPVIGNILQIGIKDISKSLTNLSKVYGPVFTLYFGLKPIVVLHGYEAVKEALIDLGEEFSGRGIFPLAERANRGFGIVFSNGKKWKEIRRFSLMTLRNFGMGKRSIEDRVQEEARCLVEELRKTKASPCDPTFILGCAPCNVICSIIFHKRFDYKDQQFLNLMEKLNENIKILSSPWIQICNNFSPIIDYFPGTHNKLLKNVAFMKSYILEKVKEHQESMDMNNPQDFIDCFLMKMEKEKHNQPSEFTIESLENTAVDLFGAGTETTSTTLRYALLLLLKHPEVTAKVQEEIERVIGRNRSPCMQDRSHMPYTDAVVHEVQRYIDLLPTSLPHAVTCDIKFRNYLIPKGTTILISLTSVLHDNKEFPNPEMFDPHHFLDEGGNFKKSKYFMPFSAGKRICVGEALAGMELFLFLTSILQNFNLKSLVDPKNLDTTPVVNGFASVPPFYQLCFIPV
Chain of CYP2C19 (P33261 whole entry): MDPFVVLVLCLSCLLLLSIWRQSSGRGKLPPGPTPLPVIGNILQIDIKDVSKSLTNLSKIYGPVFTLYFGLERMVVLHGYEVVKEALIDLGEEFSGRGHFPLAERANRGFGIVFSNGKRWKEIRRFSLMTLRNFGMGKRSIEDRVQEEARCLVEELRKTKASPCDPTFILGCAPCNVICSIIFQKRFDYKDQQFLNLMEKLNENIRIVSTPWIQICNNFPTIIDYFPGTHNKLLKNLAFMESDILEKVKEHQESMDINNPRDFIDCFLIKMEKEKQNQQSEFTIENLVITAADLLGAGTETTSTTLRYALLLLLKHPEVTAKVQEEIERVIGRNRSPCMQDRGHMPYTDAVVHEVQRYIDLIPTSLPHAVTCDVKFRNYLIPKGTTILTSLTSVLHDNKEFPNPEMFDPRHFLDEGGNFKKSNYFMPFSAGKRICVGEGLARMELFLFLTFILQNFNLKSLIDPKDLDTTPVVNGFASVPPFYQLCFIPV
Chain of Histone deacetylase 1 (Q13547 whole entry): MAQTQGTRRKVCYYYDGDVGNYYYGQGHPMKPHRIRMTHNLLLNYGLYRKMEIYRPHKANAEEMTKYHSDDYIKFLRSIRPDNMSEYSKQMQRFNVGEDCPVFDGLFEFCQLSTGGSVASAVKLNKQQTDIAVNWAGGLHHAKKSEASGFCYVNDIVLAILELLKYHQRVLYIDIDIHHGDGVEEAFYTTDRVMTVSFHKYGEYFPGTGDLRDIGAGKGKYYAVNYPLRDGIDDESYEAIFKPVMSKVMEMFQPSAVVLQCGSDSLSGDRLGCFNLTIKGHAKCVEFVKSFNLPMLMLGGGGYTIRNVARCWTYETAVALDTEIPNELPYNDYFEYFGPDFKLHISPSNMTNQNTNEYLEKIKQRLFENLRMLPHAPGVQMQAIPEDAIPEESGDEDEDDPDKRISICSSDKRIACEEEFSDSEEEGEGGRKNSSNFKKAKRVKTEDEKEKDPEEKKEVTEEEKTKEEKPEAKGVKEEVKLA

Regarding `O=C(CCCCCCC(=O)Nc1ccccc1)NO` [VORINOSTAT], the inhibition – broadly, the drop in the measured response relative to a control, in per cent – at 1 µM in data set [1] stood at 14%; in data set [2] it was 28%; in data set [3] it was 8%; in data set [13], 14%. Besides, the clearance – broadly, the rate of elimination divided by the concentration – in data set [4] (mouse) was 78 mL/min/kg; in data set [4] (rat), 67 mL/min/kg. Also, the results for the “%R” value in [5] (human) and in data set [5] (mouse) were 97% and 114%, respectively. In addition, the bioavailability – broadly, the share of a dose that reaches the circulation, judged against a reference dose that is usually intravenous – in [6] was determined as 61%; in [10] (mouse) it was 14%; in data set [10] (rat) it was 16%. For the same compound, the Hepatocyte stability in data set [7] (human) was 3 uL/min/10e6 cells; in data set [7] (rat), 12 uL/min/10e6 cells. In data set [8], the Papp (as a rule, the rate of passage across a membrane or cell layer, normalised by area and donor concentration) turned out to be 8 ×10⁻⁶ cm/s. Also, the Vd in data set [9] (mouse) was 2.1 L/kg; in [9] (rat), 1.6 L/kg. The AUC (in general, the area under the concentration-time curve, a measure of exposure) in data set [11] was 400 ng·h/mL; in [12] it was 600 ng·h/mL; in [14], 200 ng·h/mL. The figures for the half-life in [15] (mouse) and in data set [15] (rat) were 0.8 h and 0.7 h, respectively.
`O=C(NO)c1ccc(-c2ccn(CCNCc3ccc4c(c3)OCO4)n2)s1`: the inhibition at 1 µM in data set [1] is 9%; in data set [2], 0%; in data set [3], 8%; in data set [13] it was 71%. In data set [16], the CL came out at 10 mL/min/kg. Further, in data set [4] (rat), the clearance is 21 mL/min/kg. For the same compound, the Percent remaining in data set [5] (human) was 55%; in [5] (mouse), 5%. The bioavailability in data set [6] came to 85%; in [10] (rat), 2%. In addition, the results for the Hepatocyte stability in data set [7] (human) and in [7] (rat) were 15 uL/min/10e6 cells and 26 uL/min/10e6 cells, respectively. Moreover, the Papp in data set [8] came out at 4.2 ×10⁻⁶ cm/s. The Vd worked out at 0.4 L/kg in [9] (mouse) and 0.9 L/kg in [9] (rat). In data set [17], the F is 1%. For the same compound, the AUC is 100 ng·h/mL in data set [11], 7200 ng·h/mL in data set [12] and 900 ng·h/mL in data set [19]. Also, the negative logarithm of the IC50 (pIC50) (as a rule, the IC50 on a negative log10 scale, so that one unit is a factor of ten) in data set [18] is 4.28. Besides, the half-life (commonly the time in which the quantity being followed falls by half) was 2.5 h in data set [15] (mouse) and 1.6 h in data set [15] (rat).
Regarding `O=C(NO)c1ccc(-c2ccc(CNCc3ccccc3)cn2)s1`, the inhibition at 1 µM in data set [1] was 17%; in [2], -14%; in data set [3], 1%; in [13] it was -4%. Besides, the pIC50 was 7.10 in data set [20]; 6.96 in data set [21]; 7.80 in [22]; 6.66 in data set [23]; 4.59 in [18]. Besides, the values for the clearance in data set [4] (mouse) and in [4] (rat) were 83 mL/min/kg and 13 mL/min/kg, respectively. Also, the Percent remaining in data set [5] (human) is 88%; in data set [5] (mouse), 35%. The figures for the bioavailability in [6], in [10] (mouse) and in [10] (rat) were 100%, 36% and 50%, respectively. The values for the Hepatocyte stability in [7] (human) and in data set [7] (rat) were 7 uL/min/10e6 cells and 27 uL/min/10e6 cells, respectively. The compound further had a Papp in data set [8] of 15.4 ×10⁻⁶ cm/s. For the same compound, the Vd was 1.1 L/kg in data set [9] (mouse) and 2.9 L/kg in [9] (rat). In addition, the AUC in [11] was determined as 3300 ng·h/mL; in [12], 1250 ng·h/mL; in [14] it was 360 ng·h/mL. Moreover, the half-life in data set [15] (mouse) is 0.17 h; in data set [15] (rat), 2.7 h.

Source of the values: ChEMBL document CHEMBL1137593, “Identification and optimisation of a series of substituted 5-pyridin-2-yl-thiophene-2-hydroxamic acids as potent histone deacetylase (HDAC) inhibitors” (Bioorg Med Chem Lett, 2007).
